# Where “and” joins values, the source holds several entries; their conditions need not be identical. Equal entries are not always repeated.
# How the values were obtained:
# [1] = test system: anaerobic mixed culture (domestic sewage); assay: Anaerobic digestion of domestic sewage, overall effect of formate salt concentration
# Protocol: The various formate salts include, but are not limited to sodium formate (NaHCOO), potassium formate (KHCOO), ammonium formate (NH4COO), calcium formate (Ca(HCOO)2), and others either singly or in combination. These formate salts have been tested for concentrations ranging from 10 mg/L (˜10 ppm) to as high as […] (100,000 mg/L) based on the organic matter available for digestion.
# Two tests were run in which sodium formate in concentrations ranging from a few parts per million (ppm) up to ten percent (10%) on a mass basis were added to samples taken from a publicly owned anaerobic digester. The samples were first cultured in laboratory sized batch reactors. The twelve batch reactors were then sampled, and studied for periods of up to fifty-five days. The process variables that were monitored included COD (Chemical Oxygen Demand), TS (Total Solids), TVS (Total Volatile Solids) and the pH of the culture. Time and the initial sodium formate concentration level were the independent variables. Finally measurements were also made of the bacterial counts at the beginning and at the end of the fifty five day period.
# (§1) Municipal sludge from the city of Lubbock, Wastewater Treatment Plant was digested in 12 batch digesters. Using twelve batch reactors allowed the collection of control reactors data (i.e., no formate in the reactors) in triplicate, titration studies of increasing formate concentration, and duplicates/triplicates of varying formate concentration. Experiments were conducted in the laboratories of Texas Tech University.
# [2] = test system: mixed culture from a publicly owned anaerobic digester; assay: Identification of predominant colony types in the mixed culture; assay type: cell-based
# [3] = test system: mixed culture from municipal sludge digester; assay: Volume and composition of gas generated in batch anaerobic digesters
# Excerpt: Volumetric gas production measurements
# The gases generated by the biological activity within the reactors were collected in the overhanging plastic bags. The bags are connected to a tank containing colored water via a gas port used for sampling purpose to determine the gas composition. To measure the volume of gas in the bag, the water in the tank is drained out maintaining a suction pressure head difference of 2 cm between the atmospheric air and the gas inside the tank. The water is drained until there is a jump in the pressure head differences, which is actually noted by observing a jump in the difference in levels of manometer limbs. […] The difference between final water level and initial water level is measured by the scale on the side of the tank and is indicative of the volume of gas collected in each of the bags. The gas is returned to the bags by pumping the drained water back into the water tank, whereby the collected gas inside the water tank is pushed back into the overhanging plastic bags.
# Gas composition measurements
# To analyze the composition of the gases collected, a small sample of gas was withdrawn through a gas port and then sent out for analysis by a commercial laboratory utilizing gas chromatography.
# as §1
# The reactors were setup on Mar. […] The substrate taken was 2 parts of 50 g/liter sucrose solution mixed with 1 part of digested municipal sludge which acts as the seed material for incorporation of microbes into the reactors. The experiments were started with the following protocol. [drawing 1]
# [4] = test system: bacteria of the mixed anaerobic digester culture; assay: Bacterial colony counts from formate bioreactors; assay type: cell-based
# Protocol: Procedure for Bacterial Colony Counts from Formate Bioreactors
# 1. Collect samples from each bioreactor in sterile 30-mL glass vials with screw caps.
# 2. All subsequent operations are performed aseptically in the anaerobic chamber under an atmosphere of 3% H2/7% CO2/90% N2.
# 4. Seed 0.1-mL samples form the dilution blanks into tryptic soy agar plates.
# 5. Inoculate three plates for each dilution. Final dilutions on the plates are 10^−3 and 10^−4
# 6. Incubate all plates anaerobically for 3-4 days at room temperature (approximately 25° C.) prior to manually counting the numbers of colonies on each plate.
# 7. Calculate the numbers of colony-forming units (CFU) per ml in the original samples.
# [5] = 100000 ppm, average of reactors
smiles,measurement,setting,value
O=C[O-].[Na+] [sodium formate],effect on anaerobic digestion over the tested concentration range,"[1]; 10 mg/L to 100,000 mg/L based on the organic matter available for digestion",beneficial at all concentration levels
same,concentration range of greatest effects,"[1]; 10 mg/L to 100,000 mg/L tested","greatest effects being observed over the 100 ppm to the 2,000-mg/L range"
same,cellular activity in the mixed culture,[1]; above the 5000 ppm concentration level,"slightly, but still progressively more inhibited"
same,effect of accidental addition of too much (titration data),[1]; overdose,would not shut down the digester culture
same,effect on anaerobic digestion process,"[1]; up to 5000 ppm, batch reactors, up to 55 days",facilitate the anaerobic digestion process at all concentration levels up to 5000 ppm
same,colony types identified,[2]; 10% level,only Cellulomonas cellulans was identified along with large masses of yeast cells
same,bio-diversity of the mixed culture,[2]; 1000-5000 ppm,increase the bio-diversity of the mixed culture
same,number of predominant colony types,"[2]; 1000 ppm, control had two",eight
same,growth of colonies in the mixed culture,[2]; lower levels (≦5000 ppm),facilitate growth of some of the more dormant colonies in the mixed culture
same,Average Composition CH4,"[3]; 1000 ppm, average of reactors",0%
same,Average Composition CO2,"[3]; 1000 ppm, average of reactors",18.3%
same,Average Composition N2,"[3]; 1000 ppm, average of reactors",71.7%
same,Composition CH4,"[3]; 1000 ppm, single reactors",0%
same,Composition CO2,"[3]; 1000 ppm, single reactors",40% and 20% and 25%
same,Composition N2,"[3]; 1000 ppm, single reactors",60% and 80% and 75%
same,Average Composition CH4,[3]; 5000 ppm,0.1%
same,Average Composition CO2,[3]; 5000 ppm,41%
same,Average Composition N2,[3]; 5000 ppm,59%
same,Composition CH4,"[3]; 5000 ppm, reactor 3",0.1%
same,Composition CO2,"[3]; 5000 ppm, reactor 3",41%
same,Composition N2,"[3]; 5000 ppm, reactor 3",59%
same,Volume of CO2 generated,"[3]; 5000 ppm, reactor 3",725 mL
same,Volume of gas,"[3]; 5000 ppm, reactor 3",1750 mL
same,Average Composition CH4,"[3]; 10000 ppm, average of reactors",0%
same,Average Composition CO2,"[3]; 10000 ppm, average of reactors",41.7%
same,Average Composition N2,"[3]; 10000 ppm, average of reactors",58.3%
same,Composition CH4,"[3]; 10000 ppm, single reactors",0%
same,Composition CO2,"[3]; 10000 ppm, single reactors",57% and 43% and 40%
same,Composition N2,"[3]; 10000 ppm, single reactors",43% and 57% and 60%
same,Average Composition CH4,[3]; [5],0%
same,Average Composition CO2,[3]; [5],59%
same,Average Composition N2,[3]; [5],41.5%
same,Composition CH4,"[3]; 100000 ppm, single reactors",0%
same,Composition CO2,"[3]; 100000 ppm, single reactors",70% and 47%
same,Composition N2,"[3]; 100000 ppm, single reactors",30% and 53%
same,Volume of CO2 generated,"[3]; 100000 ppm, single reactors",910 mL and 1663 mL
same,bacterial counts,"[4]; 100 ppm to 100,000 ppm, lower counts at higher concentrations",> 10^5 CFU per milliliter
same,Colony forming units per mL,"[4]; 5000 ppm, reactor 3",0.59 × 10^7 per mL
same,Colony forming units per mL,"[4]; 10000 ppm, single reactors (2, 4, 5)",0.26 × 10^7 per mL and 0.19 × 10^7 per mL and 0.38 × 10^7 per mL
